Results taken from patent US6903095B2, “Phthalimido derivatives and a process for their preparation” (Hoffmann-La Roche Inc., priority 2002, dated 2005).
Where a name gives a salt, the structure may show the parent alone.

What was measured:
human MAO-B = biological target: T1, human MAO-B (Homo sapiens, UniProt P27338); test: MAO-B enzymatic activity, spectrophotometric assay (Amplex Red, tyramine substrate) on membranes of transfected EBNA cells; assay type: biochemical; conditions: 30 min preincubation at 37° C., pH 7.4, tyramine substrate
T1 construct: expressed in transfected cells; host or cells: EBNA cells (transient transfection; cell membranes used)
T1 sequence (P27338 1-520): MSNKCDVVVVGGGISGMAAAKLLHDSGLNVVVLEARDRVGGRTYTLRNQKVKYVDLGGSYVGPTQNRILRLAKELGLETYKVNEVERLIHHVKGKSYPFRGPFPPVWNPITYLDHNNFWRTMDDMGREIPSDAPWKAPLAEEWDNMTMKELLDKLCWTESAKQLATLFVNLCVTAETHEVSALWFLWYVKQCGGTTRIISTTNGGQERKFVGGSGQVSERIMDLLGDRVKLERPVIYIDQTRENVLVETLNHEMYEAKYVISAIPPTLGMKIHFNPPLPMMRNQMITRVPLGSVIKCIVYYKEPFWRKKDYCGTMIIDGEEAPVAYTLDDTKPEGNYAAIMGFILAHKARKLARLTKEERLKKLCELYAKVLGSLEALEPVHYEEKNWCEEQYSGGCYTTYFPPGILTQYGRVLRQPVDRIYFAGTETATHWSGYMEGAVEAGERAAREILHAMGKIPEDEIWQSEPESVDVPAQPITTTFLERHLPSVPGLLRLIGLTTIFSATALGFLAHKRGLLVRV
Method: (§1) The cDNA's encoding human MAO-A and MAO-B were transiently transfected into EBNA cells using the procedure described by E.-J. Schlaeger and K. Christensen (Transient Gene Expression in Mammalian Cells Grown in Serum-free Suspension Culture; Cytotechnology, 15: 1-13, 1998). After transfection, cells were homogenized by means of a Polytron homogenizer in 20 mM Tris HCl buffer, pH 8.0, containing 0.5 mM EGTA and 0.5 mM phenylmethanesulfonyl fluoride. Cell membranes were obtained by centrifugation at 45,000×g and, after two rinsing step with 20 mM Tris HCl buffer, pH 8.0, containing 0.5 mM EGTA, membranes were eventually re-suspended in the above buffer and aliquots stored at −80° C. until use.
(§2) MAO-A and MAO-B enzymatic activity was assayed in 96-well-plates using a spectrophotometric assay adapted from the method described by M. Zhou and N. Panchuk-Voloshina (A One-Step Fluorometric Method for the Continuous Measurement of Monoamine Oxidase Activity, Analytical Biochemistry, 253: 169-174, 1997). Briefly, membrane aliquots were incubated in 0.1 M potassium phosphate buffer, pH 7.4, for 30 min at 37° C. with or without various concentrations of the compounds. After this period, the enzymatic reaction was started by the addition of the MAO substrate tyramine together with 1 U/ml horse-radish peroxidase (Roche Biochemicals) and 80 μM N-acetyl-3,7,-dihydroxyphenoxazine (Amplex Red, Molecular Probes). The samples were further incubated for 30 min at 37° C. in a final volume of 200 μl and absorbance was then determined at a wavelength of 570 nm using a SpectraMax plate reader (Molecular Devices). Background (non-specific) absorbance was determined in the presence of 10 μM clorgyline for MAO-A or 10 μM L-deprenyl for MAO-B.
(§3) IC50 values were determined from inhibition curves obtained using nine inhibitor concentrations in duplicate, by fitting data to a four parameter logistic equation using a computer program.

human MAO-A = biological target: T2, human MAO-A (Homo sapiens, UniProt P21397); test: MAO-A enzymatic activity, spectrophotometric assay (Amplex Red, tyramine substrate) on membranes of transfected EBNA cells; assay type: biochemical; conditions: 30 min preincubation at 37° C., pH 7.4, tyramine substrate
T2 construct: expressed in transfected cells; host or cells: EBNA cells (transient transfection; cell membranes used)
T2 sequence (P21397 1-527): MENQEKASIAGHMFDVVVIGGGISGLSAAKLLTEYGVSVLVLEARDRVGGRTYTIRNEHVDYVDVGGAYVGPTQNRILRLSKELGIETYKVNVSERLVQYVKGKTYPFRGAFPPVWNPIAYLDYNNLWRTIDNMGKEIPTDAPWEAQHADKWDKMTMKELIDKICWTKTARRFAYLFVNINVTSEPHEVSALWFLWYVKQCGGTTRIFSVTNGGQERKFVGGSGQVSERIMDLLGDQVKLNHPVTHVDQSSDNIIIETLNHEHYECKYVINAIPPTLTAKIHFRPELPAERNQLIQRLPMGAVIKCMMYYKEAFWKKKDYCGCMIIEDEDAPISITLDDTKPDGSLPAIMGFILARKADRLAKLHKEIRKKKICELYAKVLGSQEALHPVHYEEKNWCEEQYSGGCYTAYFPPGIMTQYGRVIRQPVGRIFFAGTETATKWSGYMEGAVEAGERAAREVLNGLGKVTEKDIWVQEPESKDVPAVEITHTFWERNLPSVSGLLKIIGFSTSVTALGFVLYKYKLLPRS
Method: as §1, §2, §3

| SMILES | IC50 (human MAO-B) [nM] | IC50 (human MAO-A) [nM] |
| --- | --- | --- |
| N#CCN1C(=O)c2ccc(OCc3ccc(F)cc3)cc2C1=O [Example 7] | 34 | > 10000 |
| NCCN1C(=O)c2ccc(OCc3ccc(F)cc3)cc2C1=O [Example 9, 2-(2-Amino-ethyl)-5-(4-fluoro-benzyloxy)-isoindole-1,3-dione 1:1 hydrochloride] | 32 | > 10000 |
| O=C1c2ccc(OCc3ccc(F)cc3)cc2C(=O)N1CCO [Example 12, 5-(4-Fluoro-benzyloxy)-2-(2-hydroxy-ethyl)-isoindole-1,3-dione] | 4 | 369 |
| NC(=O)[C@H](CO)N1C(=O)c2ccc(OCc3ccc(F)cc3)cc2C1=O [Example 14, (S)-2-[5-(4-Fluoro-benzyloxy)-1,3-dioxo-1,3-dihydro-isoindol-2-yl]-3-hydroxy-propionamide] | 17 | > 10000 |
| COC[C@H](C)N1C(=O)c2ccc(OCc3cccc(OC)c3)cc2C1=O [Example 29, (S)-5-(3-Methoxy-benzyloxy)-2-(2-methoxy-1-methyl-ethyl)-isoindole-1,3-dione] | 69 | > 10000 |
| COC[C@H](C)N1C(=O)c2ccc(OCc3ccc(C#N)cc3)cc2C1=O [Example 30, (S)-4-[2-(2-Methoxy-1-methyl-ethyl)-1,3-dioxo-2,3-dihydro-1H-isoindol-5-yloxymethyl]-bezonitrile] | 129 | 6200 |
| O=C1c2ccc(OCc3ccc(F)cc3)cc2C(=O)N1Cc1cccs1 [Example 34, 5-(4-Fluoro-benzyloxy)-2-thiophen-2-ylmethyl-isoindole-1,3-dione] | 81 | > 10000 |
| COC(CN1C(=O)c2ccc(OCc3ccc(F)cc3)cc2C1=O)C(F)(F)F (stereo not drawn) [Example 43] | 45 | > 10000 |
| C[C@@H](C(N)=O)N1C(=O)c2ccc(OCc3cccc(F)c3)cc2C1=O [Example 44, (S)-2-[5-(3-Fluoro-benzyloxy)-1,3-dioxo-1,3-dihydro-isoindol-2-yl]-propionamide] | 7 | 5760 |

Further compounds by falling IC50 (human MAO-B), results first:

| IC50 (human MAO-B) [nM] | IC50 (human MAO-A) [nM] | SMILES |
| --- | --- | --- |
| 115 | > 10000 | CC[S+]([O-])CCN1C(=O)c2ccc(OCc3ccc(F)cc3)cc2C1=O (stereo not drawn) [Example 38, 2-(2-Ethanesulfinyl-ethyl)-5-(4-fluoro-benzyloxy)-isoindole-1,3-dione] |
| 97 | > 10000 | NC(=O)CC(O)CN1C(=O)c2ccc(OCc3ccc(F)cc3)cc2C1=O (stereo not drawn) [Example 22, 4-[5-(4-Fluoro-benzyloxy)-1,3-dioxo-1,3-dihydro-isoindol-2-yl]-3-hydroxy-butyramide] |
| 47 | > 10000 | COC[C@H](C)N1C(=O)c2ccc(OCc3ccc(OC(F)(F)F)cc3)cc2C1=O [Example 32, (S)-2-(2-Methoxy-1-methyl-ethyl)-5-(4-trifluoromethoxy-benzyloxy)-isoindole-1,3-dione] |
| 39 | > 10000 | NCCN1C(=O)c2ccc(OCc3cccc(F)c3)cc2C1=O [Example 50, 2-(2-Amino-ethyl)-5-(3-fluoro-benzyloxy)-isoindole-1,3-dione 1:1 hydrochloride] |
| 34 | > 10000 | COC[C@H](C)N1C(=O)c2ccc(OCc3ccc(Br)cc3)cc2C1=O [Example 28, (S)-5-(4-Bromo-benzyloxy)-2-(2-methoxy-1-methyl-ethyl)-isoindole-1,3-dione] |
| 32 | 3500 | COC[C@H](C)N1C(=O)c2ccc(OCc3ccc(F)c(F)c3)cc2C1=O [Example 31, (S)-5-(3,4-Difluoro-benzyloxy)-2-(2-methoxy-1-methyl-ethyl)-isoindole-1,3-dione] |
| 20 | > 10000 | NC(=O)[C@H](CO)N1C(=O)c2ccc(OCc3cccc(F)c3)cc2C1=O [Example 52, (S)-2-[5-(3-Fluoro-benzyloxy)-1,3-dioxo-1,3-dihydro-isoindol-2-yl]-3-hydroxy-propionamide] |
| 11 | > 10000 | CCSCCN1C(=O)c2ccc(OCc3ccc(F)cc3)cc2C1=O [Example 19, 2-(2-Ethylsulfanyl-ethyl)-5-(4-fluoro-benzyloxy)-isoindole-1,3-dione] |
| 8 | 776 | C[C@@H](C(N)=O)N1C(=O)c2ccc(OCc3ccc(F)cc3)cc2C1=O [Example 2, (S)-2-[5-(4-Fluoro-benzyloxy)-1,3-dioxo-1,3-dihydro-isoindol-2-yl]-propionamide] |
